Results on 1 molecule are retold here after ChEMBL document CHEMBL5523743, “Identification of Psychoplastogenic Tropanes Lacking Muscarinic Activity” (J Med Chem, 2024).

Active and inactive are the calls of the source. The rule behind the calls is not given here.

Data set [1] relates to Neuron. Description: Neuroplasticity effect in Wistar rat brain cortical neuron assessed as increase in neurite outgrowth at 0.25 to 10 uM after 72 hrs. The data set is classed as functional, cell-based. Particulars: dose 0.25-10 µM.
Data set [2] deals with Neuron. The experiment in a line: Cytotoxicity against Wistar rat brain cortical neurons assessed as neurite restriction. The data set is classed as toxicity, cell-based. Particulars: dose 0.25-10 µM.

In the case of `CN1[C@@H]2CCC[C@H]1[C@H]1[C@@H]2N1c1cccc2[nH]ccc12`, the result in data set [1] was inactive. Further, the Activity result in data set [2] was “Dose-Dependent Effect”.
